Measured values reported in patent US8410161B2, “Thioxanthone ring system derivatives” (National Defense Medical Center, priority 2010, dated 2013).

How the values were obtained:
[1] = test system: MALME-3M; test: NCI in vitro DTP human cell line screen, MALME-3M; assay type: cell-based; details: Melanoma, 1.00E−5 Molar
Description: (§1) Then, a cell toxicity assay of the cancer lines made by National Cancer Institute will be discussed as follows. The cell toxicity assay is performed by choosing ten compounds (existing certification numbers) from the 59 compounds disclosed in the present invention first.

[2] = test system: M14; test: NCI in vitro DTP human cell line screen, M14; assay type: cell-based; details: Melanoma, 1.00E−5 Molar
Description: as §1

[3] = test system: MDA-MB-435; test: NCI in vitro DTP human cell line screen, MDA-MB-435; assay type: cell-based; details: Melanoma, 1.00E−5 Molar
Description: as §1

[4] = test system: SK-MEL-2; test: NCI in vitro DTP human cell line screen, SK-MEL-2; assay type: cell-based; details: Melanoma, 1.00E−5 Molar
Description: as §1

[5] = test system: SK-MEL-28; test: NCI in vitro DTP human cell line screen, SK-MEL-28; assay type: cell-based; details: Melanoma, 1.00E−5 Molar
Description: as §1

[6] = test system: SK-MEL-5; test: NCI in vitro DTP human cell line screen, SK-MEL-5; assay type: cell-based; details: Melanoma, 1.00E−5 Molar
Description: as §1

[7] = test system: UACC-257; test: NCI in vitro DTP human cell line screen, UACC-257; assay type: cell-based; details: Melanoma, 1.00E−5 Molar
Description: as §1

[8] = test system: IGROV1; test: NCI in vitro DTP human cell line screen, IGROV1; assay type: cell-based; details: Ovarian Cancer, 1.00E−5 Molar
Description: as §1

[9] = test system: OVCAR-3; test: NCI in vitro DTP human cell line screen, OVCAR-3; assay type: cell-based; details: Ovarian Cancer, 1.00E−5 Molar
Description: as §1

[10] = test system: OVCAR-4; test: NCI in vitro DTP human cell line screen, OVCAR-4; assay type: cell-based; details: Ovarian Cancer, 1.00E−5 Molar
Description: as §1

[11] = test system: OVCAR-5; test: NCI in vitro DTP human cell line screen, OVCAR-5; assay type: cell-based; details: Ovarian Cancer, 1.00E−5 Molar
Description: as §1

[12] = test system: OVCAR-8; test: NCI in vitro DTP human cell line screen, OVCAR-8; assay type: cell-based; details: Ovarian Cancer, 1.00E−5 Molar
Description: as §1

[13] = test system: NCI/ADR-RES; test: NCI in vitro DTP human cell line screen, NCI/ADR-RES; assay type: cell-based; details: Ovarian Cancer, 1.00E−5 Molar
Description: as §1

[14] = test system: SK-OV-3; test: NCI in vitro DTP human cell line screen, SK-OV-3; assay type: cell-based; details: Ovarian Cancer, 1.00E−5 Molar
Description: as §1

[15] = test system: 786-0; test: NCI in vitro DTP human cell line screen, 786-0; assay type: cell-based; details: Renal Cancer, 1.00E−5 Molar
Description: as §1

[16] = test system: ACHN; test: NCI in vitro DTP human cell line screen, ACHN; assay type: cell-based; details: Renal Cancer, 1.00E−5 Molar
Description: as §1

[17] = test system: CAKI-1; test: NCI in vitro DTP human cell line screen, CAKI-1; assay type: cell-based; details: Renal Cancer, 1.00E−5 Molar
Description: as §1

[18] = test system: RXF 393; test: NCI in vitro DTP human cell line screen, RXF 393; assay type: cell-based; details: Renal Cancer, 1.00E−5 Molar
Description: as §1

[19] = test system: TK-10; test: NCI in vitro DTP human cell line screen, TK-10; assay type: cell-based; details: Renal Cancer, 1.00E−5 Molar
Description: as §1

[20] = test system: UO-31; test: NCI in vitro DTP human cell line screen, UO-31; assay type: cell-based; details: Renal Cancer, 1.00E−5 Molar
Description: as §1

[21] = test system: PC-3; test: NCI in vitro DTP human cell line screen, PC-3; assay type: cell-based; details: Prostate Cancer, 1.00E−5 Molar
Description: as §1

[22] = test system: DU145; test: NCI in vitro DTP human cell line screen, DU145; assay type: cell-based; details: Prostate Cancer, 1.00E−5 Molar
Description: as §1

[23] = test system: MCF7; test: NCI in vitro DTP human cell line screen, MCF7; assay type: cell-based; details: Breast Cancer, 1.00E−5 Molar
Description: as §1

[24] = test system: HS 578-T; test: NCI in vitro DTP human cell line screen, HS 578-T; assay type: cell-based; details: Breast Cancer, 1.00E−5 Molar
Description: as §1

[25] = test system: BT-549; test: NCI in vitro DTP human cell line screen, BT-549; assay type: cell-based; details: Breast Cancer, 1.00E−5 Molar
Description: as §1

[26] = test system: T-47D; test: NCI in vitro DTP human cell line screen, T-47D; assay type: cell-based; details: Breast Cancer, 1.00E−5 Molar
Description: as §1

[27] = test system: MDA-MB-468; test: NCI in vitro DTP human cell line screen, MDA-MB-468; assay type: cell-based; details: Breast Cancer, 1.00E−5 Molar
Description: as §1

[28] = test system: 60 cancer lines; test: NCI cell toxicity assay of 60 cancer lines, whole panel summary; assay type: cell-based, human; details: mean over all cell lines; 1.00E−5 Molar
Description: as §1

COc1cccc(Sc2ccc3c(=O)c4ccccc4sc3c2Cl)c1 [No. 16, 4-Chloro-3-(3-methoxylphenylthio)-9H-thioxanthen-9-one]
Growth Percent [1]: 94.91%
Growth Percent [2]: 111.90%
Growth Percent [3]: 100.32%
Growth Percent [4]: 97.07%
Growth Percent [5]: 109.16%
Growth Percent [6]: 96.73%
Growth Percent [7]: 89.21%
Growth Percent [8]: 108.37%
Growth Percent [9]: 113.99%
Growth Percent [10]: 99.88%
Growth Percent [11]: 94.14%
Growth Percent [12]: 94.29%
Growth Percent [13]: 102.83%
Growth Percent [14]: 104.91%
Growth Percent [15]: 107.97%
Growth Percent [16]: 103.08%
Growth Percent [17]: 101.23%
Growth Percent [18]: 112.67%
Growth Percent [19]: 95.23%
Growth Percent [20]: 98.31%
Growth Percent [21]: 98.58%
Growth Percent [22]: 115.18%
Growth Percent [23]: 88.94%
Growth Percent [24]: 103.73%
Growth Percent [25]: 112.48%
Growth Percent [26]: 92.09%
Growth Percent [27]: 104.49%
Growth Percent, Mean [28]: 101.65%
